Assay results as given in PubChem BioAssay (NCI).
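Five compound concentrations were applied to cells in 96-well plates for 48 hours; endpoints were derived by simple linear interpolation of the resulting dose-response curve. GI50 = concentration required for 50% inhibition of growth. TGI is the concentration that stops growth completely.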 *1 amine or outer side, *2 acyl side, *3 side chain or, on linkers, in order; H or OH if unused. Where a SMILES comes first, the peptide text is derived from it. [ ]: non-standard residue; d: D form. The star is where a group is joined. X11 = C/C=C/CC(C)C(O)[C@H](N[*:1])C(=O)[*:2]; Decanoyl = CCCCCCCCCC(=O)*; Leu(ol) = CC(C)C[C@H](N)CO; Aib = CC(C)(N)C(=O)O

How the values were obtained:
Test in all cases: NCI tumour cell line growth inhibition, 48 h
[1] = test system: TK-10 renal
[2] = test system: NCI-H522 lung
[3] = test system: PC-3 prostate
[4] = test system: HCT-116 colon
[5] = test system: NCI/ADR-RES ovarian
[6] = test system: EKVX NSCLC
[7] = test system: BT-549 breast
[8] = test system: OVCAR-8 ovarian
[9] = test system: SR leukemia
[10] = test system: SNB-75 CNS
[11] = test system: T-47D breast
[12] = test system: SF-268 CNS
[13] = test system: UO-31 renal
[14] = test system: DU-145 prostate
[15] = test system: HCC-2998 colon
[16] = test system: KM12 colon
[17] = test system: SF-295 CNS
[18] = test system: RXF 393 renal
[19] = test system: NCI-H226 lung
[20] = test system: MDA-MB-231 breast
[21] = test system: SNB-19 CNS
[22] = test system: IGROV1 ovarian
[23] = test system: 786-0 renal
[24] = test system: CAKI-1 renal
[25] = test system: M14 melanoma
[26] = test system: A498 renal
[27] = test system: OVCAR-4 ovarian
[28] = test system: ACHN renal
[29] = test system: HS 578T breast
[30] = test system: K-562 leukemia
[31] = test system: NCI-H460 lung
[32] = test system: RPMI-8226 leukemia
[33] = test system: COLO 205 colon
[34] = test system: SK-OV-3 ovarian
[35] = test system: SK-MEL-28 melanoma
[36] = test system: MCF7 breast
[37] = test system: NCI-H23 lung
[38] = test system: LOX IMVI melanoma
[39] = test system: SN12C renal
[40] = test system: SW-620 colon
[41] = test system: U251 CNS
[42] = test system: MOLT-4 leukemia
[43] = test system: SK-MEL-5 melanoma
[44] = test system: HOP-62 NSCLC
[45] = test system: HOP-92 NSCLC
[46] = test system: UACC-62 melanoma
[47] = test system: HT29 colon
[48] = test system: HL-60(TB) leukemia
[49] = test system: SK-MEL-2 melanoma
[50] = test system: A549 NSCLC
[51] = test system: UACC-257 melanoma
[52] = test system: SF-539 CNS
[53] = test system: OVCAR-3 ovarian
[54] = test system: CCRF-CEM leukemia
[55] = test system: OVCAR-5 ovarian
[56] = test system: MDA-MB-435
[57] = test system: MALME-3M melanoma
[58] = test system: HCT-15 colon

C/C=C/CC(C)C(O)[C@H](NC(=O)[C@@H]1CCCN1C(=O)C(C)(C)NC(=O)CCCCCCCCC)C(=O)NC(C)(C)C(=O)N[C@@H](CCC(N)=O)C(=O)N[C@H](CCC(N)=O)C(=O)NC(C)(C)C(=O)NC(C)(C)C(=O)N[C@@H](CCC(N)=O)C(=O)N[C@H](CC(C)C)C(=O)N[C@H](CO)CC(C)C (stereo partly drawn) (Decanoyl-[Aib]P[X11][Aib]Q[dQ][Aib][Aib]Q[dL][Leu(ol)]) was tested, and the GI50 [1] was 2270 nM, the TGI [1] was 5570 nM and the GI50 [2] was 1670 nM. The TGI [2] was 3400 nM, the GI50 [3] was 1140 nM and the TGI [3] was 3180 nM. The GI50 [4] was 2210 nM, the TGI [4] was 5160 nM and the GI50 [5] was 2390 nM. It also gave a TGI [5] of 6860 nM, a GI50 [6] of 1610 nM and a TGI [6] of 3710 nM. For the same compound, the GI50 [7] was 1840 nM, the TGI [7] was 3370 nM and the GI50 [8] was 1500 nM. For the same compound, the TGI [8] was 3760 nM, the GI50 [9] was 1950 nM and the TGI [9] was 8470 nM. For the same compound, the GI50 [10] was 1740 nM, the TGI [10] was 3220 nM and the GI50 [11] was 2090 nM. The TGI [11] was 5670 nM, the GI50 [12] was 1750 nM and the TGI [12] was 3700 nM. It also gave a GI50 [13] of 1590 nM, a TGI [13] of 4220 nM and a GI50 [14] of 1460 nM. For the same compound, the TGI [14] was 2850 nM, the GI50 [15] was 2130 nM and the TGI [15] was 5250 nM. For the same compound, the GI50 [16] was 1840 nM, the TGI [16] was 3680 nM and the GI50 [17] was 1390 nM. It also gave a TGI [17] of 2900 nM, a GI50 [18] of 2140 nM and a TGI [18] of 3980 nM. It also gave a GI50 [19] of 1640 nM, a TGI [19] of 3970 nM and a GI50 [20] of 1630 nM. The TGI [20] was 3100 nM, the GI50 [21] was 1550 nM and the TGI [21] was 3070 nM. For the same compound, the GI50 [22] was 2300 nM, the TGI [22] was 7230 nM and the GI50 [23] was 1760 nM. The TGI [23] was 3330 nM, the GI50 [24] was 2210 nM and the TGI [24] was 6090 nM. It also gave a GI50 [25] of 1690 nM, a TGI [25] of 3350 nM and a GI50 [26] of 1990 nM. The TGI [26] was 4070 nM, the GI50 [27] was 2950 nM and the GI50 [28] was 2500 nM. The TGI [28] was 7430 nM, the GI50 [29] was 1540 nM and the TGI [29] was 3280 nM. It also gave a GI50 [30] of 1660 nM, a TGI [30] of 4850 nM and a GI50 [31] of 1530 nM. It also gave a TGI [31] of 3060 nM, a GI50 [32] of 1850 nM and a TGI [32] of 4260 nM. The GI50 [33] was 1610 nM, the TGI [33] was 3330 nM and the GI50 [34] was 3110 nM. It also gave a TGI [34] of 13300 nM, a GI50 [35] of 1690 nM and a TGI [35] of 3100 nM. For the same compound, the GI50 [36] was 1630 nM, the TGI [36] was 3530 nM and the GI50 [37] was 2090 nM. It also gave a TGI [37] of 5910 nM, a GI50 [38] of 1720 nM and a TGI [38] of 3450 nM. The GI50 [39] was 1930 nM, the TGI [39] was 5350 nM and the GI50 [40] was 2380 nM. For the same compound, the TGI [40] was 7110 nM, the GI50 [41] was 1460 nM and the TGI [41] was 2970 nM. For the same compound, the GI50 [42] was 2100 nM, the TGI [42] was 6440 nM and the GI50 [43] was 1720 nM. The TGI [43] was 3160 nM, the GI50 [44] was 1640 nM and the TGI [44] was 3680 nM. The GI50 [45] was 1660 nM, the TGI [45] was 3970 nM and the GI50 [46] was 1610 nM. For the same compound, the TGI [46] was 3190 nM, the GI50 [47] was 2570 nM and the GI50 [48] was 2200 nM. The TGI [48] was 5220 nM, the GI50 [49] was 1860 nM and the TGI [49] was 4220 nM. The GI50 [50] was 2280 nM, the GI50 [51] was 1540 nM and the TGI [51] was 3090 nM. The GI50 [52] was 1620 nM, the TGI [52] was 3000 nM and the GI50 [53] was 1910 nM. The TGI [53] was 3950 nM, the GI50 [54] was 1870 nM and the TGI [54] was 4000 nM. For the same compound, the GI50 [55] was 1870 nM, the TGI [55] was 3960 nM and the GI50 [56] was 1680 nM. It also gave a TGI [56] of 3070 nM, a GI50 [57] of 1400 nM and a TGI [57] of 2760 nM. It also gave a GI50 [58] of 2440 nM and a TGI [58] of 7080 nM.
